Assay results taken from PMC9011347, “Small-Molecule Inhibitors Targeting Lipolysis in Human Adipocytes” (Journal of the American Chemical Society, 2022).

Experiments:
human ATGL = target: T1, human ATGL (Homo sapiens, UniProt Q96AD5); set-up: method as in PMID 28327588; details: cited from earlier work
T1 construct: host or cells: Expi293 cells, crude lysate
T1 sequence (Q96AD5 1-504): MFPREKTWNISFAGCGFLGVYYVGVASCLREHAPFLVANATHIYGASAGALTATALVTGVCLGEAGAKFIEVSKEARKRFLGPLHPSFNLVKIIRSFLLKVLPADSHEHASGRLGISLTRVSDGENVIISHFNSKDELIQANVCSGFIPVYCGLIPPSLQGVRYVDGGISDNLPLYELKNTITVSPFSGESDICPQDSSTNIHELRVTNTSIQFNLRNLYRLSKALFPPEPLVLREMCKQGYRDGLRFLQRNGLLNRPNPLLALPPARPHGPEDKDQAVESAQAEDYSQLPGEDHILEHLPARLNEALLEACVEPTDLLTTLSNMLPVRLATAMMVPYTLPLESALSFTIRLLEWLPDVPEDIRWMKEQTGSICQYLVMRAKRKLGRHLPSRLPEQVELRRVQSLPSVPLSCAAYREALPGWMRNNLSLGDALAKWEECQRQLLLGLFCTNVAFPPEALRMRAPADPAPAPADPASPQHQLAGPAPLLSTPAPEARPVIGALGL

HSL = HSL (Homo sapiens, UniProt Q05469); assay: Off-target lipid hydrolase assay, Expi293 lysates, p-NPV substrate; type: biochemical; details: NG-497 100 µM, substrate pNPV
Sequence of HSL (Q05469 302-1076 limits assumed): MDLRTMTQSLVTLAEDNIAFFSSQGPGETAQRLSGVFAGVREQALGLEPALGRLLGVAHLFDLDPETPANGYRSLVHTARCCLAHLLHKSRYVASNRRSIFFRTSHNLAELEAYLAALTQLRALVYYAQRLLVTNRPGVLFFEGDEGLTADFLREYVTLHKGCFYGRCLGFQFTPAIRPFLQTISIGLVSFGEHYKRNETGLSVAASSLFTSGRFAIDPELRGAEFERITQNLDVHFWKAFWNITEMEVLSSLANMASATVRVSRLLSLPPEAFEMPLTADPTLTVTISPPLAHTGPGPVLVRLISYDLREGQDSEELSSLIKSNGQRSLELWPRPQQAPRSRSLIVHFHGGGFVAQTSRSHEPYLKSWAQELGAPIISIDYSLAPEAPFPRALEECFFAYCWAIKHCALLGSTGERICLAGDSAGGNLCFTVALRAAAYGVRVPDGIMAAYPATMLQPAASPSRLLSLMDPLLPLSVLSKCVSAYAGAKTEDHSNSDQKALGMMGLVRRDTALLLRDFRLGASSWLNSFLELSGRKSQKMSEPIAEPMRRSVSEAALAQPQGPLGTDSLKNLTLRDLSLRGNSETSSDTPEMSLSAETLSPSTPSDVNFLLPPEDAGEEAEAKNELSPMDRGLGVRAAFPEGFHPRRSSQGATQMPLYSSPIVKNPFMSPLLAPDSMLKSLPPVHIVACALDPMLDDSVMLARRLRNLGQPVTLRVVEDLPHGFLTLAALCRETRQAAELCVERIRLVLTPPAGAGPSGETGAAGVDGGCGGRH
Procedure: (§1) Fig. S3: Investigation of off-target effects of NG-497 on structurally and functionally related lipid hydrolases. (a) PNPLA1-dependent formation of acylceramides was monitored in a cell-based assay in HEK293T cells. Experiments were performed in the presence or absence of NG-497 (40 µM) and the non-selective lipase inhibitor Orlistat (40 µM). Orlistat, but not NG-497, inhibited PNPLA1/CGI-58-dependent ω-O-acylceramide formation. (b-h) Enzymes were overexpressed in Expi293 cells and cell lysates were used as source of enzymatic activity. Cell lysates were incubated with the indicated substrates 1-oleoyl phosphatidylcholine (LPC), di-oleoyl phosphatidic acid (PA), di-octanoyl phosphatidylglycerol (PG), or para-nitrophenylvalerate (pNPV). Experiments were performed in the presence or absence of NG-497 (100 µM) and the formation of reaction products was monitored. Cell lysates of LacZ-transfected cells were used to detect basal cellular activity. As positive controls, enzymes were inactivated with lipase inhibitors Orlistat (40 µM), R-BEL (10 µM), KLH-45 (20 nM), HSLi (10 µM), or PMSF (10µM).
(§2) Data were calculated relative to the basal activity detected in LacZ-transfected controls. (i) Activity of purified human pancreatic lipase in the presence or absence of NG-497 (100 µM) and Orlistat (20 µM) using radiolabeled triolein as substrate. (j) Inhibition of LPL and HL by NG-497 (100 µM) was investigated in human post-heparin plasma using radiolabeled triolein as substrate.
(§3) LPL activity was inhibited using an anti-LPL antibody. All data are presented as mean ± S.D. Statistical significance was determined via ANOVA followed by Bonferroni post hoc test ( ***, p < 0.001).
(§4) (1 picture or pasted object on this page, not shown here)
(§5) Co-immunoprecipitation. […]
(§6) Analysis of toxicity in HepG2 hepatocytes. […] Release of LDH into the medium was analyzed using the Cytotoxicity Detection Kit PLUS (LDH) (MilliporeSigma) according to the manufacturer’s instructions. Cytotoxicity was calculated as relative LDH release as compared to fully lysed cells. […]

[1] = target: T2, DDHD domain-containing protein 2 (DDHD2) (Homo sapiens, UniProt O94830); assay: as above; type: biochemical; details: NG-497 100 µM, substrate pNPV
T2 construct: made in house; host or cells: Expi293 cells, lysate
T2 sequence (O94830 whole entry, the tested form may be a part): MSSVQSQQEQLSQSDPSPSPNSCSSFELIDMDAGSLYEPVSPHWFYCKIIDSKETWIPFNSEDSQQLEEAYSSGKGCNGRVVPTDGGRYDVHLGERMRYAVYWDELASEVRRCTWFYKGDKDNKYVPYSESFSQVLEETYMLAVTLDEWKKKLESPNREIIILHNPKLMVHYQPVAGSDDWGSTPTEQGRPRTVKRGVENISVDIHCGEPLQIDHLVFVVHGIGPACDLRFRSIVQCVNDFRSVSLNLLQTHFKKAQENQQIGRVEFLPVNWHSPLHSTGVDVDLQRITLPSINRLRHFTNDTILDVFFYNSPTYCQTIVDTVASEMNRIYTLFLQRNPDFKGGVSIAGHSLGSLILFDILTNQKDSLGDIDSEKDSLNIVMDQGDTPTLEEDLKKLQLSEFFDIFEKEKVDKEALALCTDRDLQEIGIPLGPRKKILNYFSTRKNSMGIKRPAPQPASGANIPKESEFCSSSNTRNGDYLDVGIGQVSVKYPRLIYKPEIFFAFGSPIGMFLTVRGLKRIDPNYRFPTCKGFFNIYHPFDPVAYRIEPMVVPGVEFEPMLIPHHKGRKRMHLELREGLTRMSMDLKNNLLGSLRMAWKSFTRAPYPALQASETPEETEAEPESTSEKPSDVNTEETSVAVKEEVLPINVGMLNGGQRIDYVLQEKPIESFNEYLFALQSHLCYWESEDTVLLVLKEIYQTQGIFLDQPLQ
Procedure: as §1, §2, §3, §4, §5, §6

[2] = target: T3, carboxylesterase 2 (CES2) (Homo sapiens, UniProt O00748); assay: as above; type: biochemical; details: NG-497 100 µM, substrate pNPV
T3 construct: made in house; host or cells: Expi293 cells, lysate
T3 sequence (O00748 27-559): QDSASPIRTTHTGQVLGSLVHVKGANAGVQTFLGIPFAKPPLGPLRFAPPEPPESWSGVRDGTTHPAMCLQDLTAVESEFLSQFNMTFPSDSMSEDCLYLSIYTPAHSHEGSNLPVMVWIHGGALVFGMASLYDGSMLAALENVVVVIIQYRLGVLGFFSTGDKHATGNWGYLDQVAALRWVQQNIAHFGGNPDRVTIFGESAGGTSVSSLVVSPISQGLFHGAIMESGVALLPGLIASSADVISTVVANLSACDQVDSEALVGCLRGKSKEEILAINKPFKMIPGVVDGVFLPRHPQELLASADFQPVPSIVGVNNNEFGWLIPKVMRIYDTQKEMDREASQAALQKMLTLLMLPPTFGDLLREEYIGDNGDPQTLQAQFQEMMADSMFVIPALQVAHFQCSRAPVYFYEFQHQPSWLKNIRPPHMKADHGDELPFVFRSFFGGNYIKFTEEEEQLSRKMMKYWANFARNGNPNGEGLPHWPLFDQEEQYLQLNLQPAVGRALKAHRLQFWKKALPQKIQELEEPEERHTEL
Procedure: as §1, §2, §3, §4, §5, §6

Compound | efficacy against human ATGL (human ATGL) | inhibition of HSL (HSL) | inhibition of DDHD2 [1] | inhibition of CES2 [2]
CN(C)C(=O)Nc1cccc(-c2ccc(N(C)C)cc2)c1 [Atglistatin, reference compound] | ineffective | – | – | –
CCOc1ccc(-c2cc(OC)cc(C(=O)OC(C)C)n2)cc1 [NG-497] | – | did not observe inhibition | did not observe inhibition | did not observe inhibition
